The structures appear in SMILES notation.

The target of this assay is FP receptor (Homo sapiens (Human), UniProt P43088). Nature of the assay: In vitro test of inhibition of human FP receptor activity (PGF2α-induced calcium flux in FP-expressing CHEM1 cells). It counts as cell-based. The following applies: PGF2α-induced (2 nM) calcium flux in FP-expressing CHEM1 cells; some as mean values from multiple determinations. From the text: Table 1 below lists the IC50 values from this assay for individual working examples of the invention (some as mean values from multiple independent individual determinations): […]
Sequence of FP receptor (P43088 whole entry): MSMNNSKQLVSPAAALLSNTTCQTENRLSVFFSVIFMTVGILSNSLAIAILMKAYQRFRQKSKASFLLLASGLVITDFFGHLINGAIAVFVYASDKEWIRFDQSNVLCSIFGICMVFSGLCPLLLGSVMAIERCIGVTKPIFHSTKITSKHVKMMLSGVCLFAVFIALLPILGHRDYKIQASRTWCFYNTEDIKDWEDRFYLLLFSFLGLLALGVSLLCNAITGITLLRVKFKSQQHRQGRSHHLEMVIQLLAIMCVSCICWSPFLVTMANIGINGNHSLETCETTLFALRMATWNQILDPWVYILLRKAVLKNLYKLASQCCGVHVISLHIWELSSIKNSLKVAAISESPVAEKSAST
A general note: Calcium assays in cells follow changes in intracellular calcium, usually with a dye or a luminescent sensor.
Take `COc1ccccc1C(C)(CNC(=O)c1c(C)c(-c2ccccc2)nc2ccc(Br)cc12)CC(=O)O` (single isomer, unassigned; (+)) [Example 121, (+)-4-{[(6-Bromo-3-methyl-2-phenylquinolin-4-yl)carbonyl]amino}-3-(2-methoxyphenyl)-3-methylbutanoic Acid]: the IC50 (commonly the concentration that gives 50% inhibition) was determined as 10 nM. Consider `COc1ccc(F)cc1C(CNC(=O)c1c(C)c(-c2ccccc2)nc2ccc(Br)cc12)CC(=O)O` (single isomer, unassigned; (+)) [Example 124, (+)-4-{[(6-Bromo-3-methyl-2-phenylquinolin-4-yl)carbonyl]amino}-3-(5-fluoro-2-methoxyphenyl)butanoic Acid], for which the concentration for half-maximal inhibition (IC50) was found to be 5.3 nM.

Take `COc1cccc(F)c1C(CNC(=O)c1c(C)c(-c2ccccc2)nc2ccc(Br)cc12)CC(=O)O` (single isomer, unassigned; (+)) [Example 127, (+)-4-{[(6-Bromo-3-methyl-2-phenylquinolin-4-yl)carbonyl]amino}-3-(2-fluoro-6-methoxyphenyl)butanoic Acid]: the concentration for half-maximal inhibition (IC50) worked out at 25 nM.

Turning to `CCOc1ccccc1C(CNC(=O)c1c(C)c(-c2ccccc2)nc2ccc(Br)cc12)CC(=O)O` (single isomer, unassigned; (+)) [Example 131, (+)-4-{[(6-Bromo-3-methyl-2-phenylquinolin-4-yl)carbonyl]amino}-3-(2-ethoxyphenyl)butanoic Acid], the IC50 came to 99 nM. In the case of `COc1ccc(F)cc1C(C)(CNC(=O)c1c(C)c(-c2ccccc2)nc2ccc(Br)cc12)CC(=O)O` (single isomer, unassigned; (+)) [Example 133, (+)-4-{[(6-Bromo-3-methyl-2-phenylquinolin-4-yl)carbonyl]amino}-3-(5-fluoro-2-methoxyphenyl)-3-methylbutanoic Acid], the IC50 worked out at 47 nM. The result for `COc1c(F)cc(F)cc1C(C)(CNC(=O)c1c(C)c(-c2ccccc2)nc2ccc(Br)cc12)CC(=O)O` (single isomer, unassigned; (+)) [Example 136, (+)-4-{[(6-Bromo-3-methyl-2-phenylquinolin-4-yl)carbonyl]amino}-3-(3,5-difluoro-2-methoxyphenyl)-3-methylbutanoic Acid] reads 13 nM; that for `COc1cc(F)ccc1C(C)(CNC(=O)c1c(C)c(-c2ccccc2)nc2ccc(Br)cc12)CC(=O)O` (single isomer, unassigned; (+)) [Example 139, (+)-4-{[(6-Bromo-3-methyl-2-phenylquinolin-4-yl)carbonyl]amino}-3-(4-fluoro-2-methoxyphenyl)-3-methylbutanoic Acid], 28 nM.

Consider `COc1cccc(F)c1C(C)(CNC(=O)c1c(C)c(-c2ccccc2)nc2ccc(Br)cc12)CC(=O)O` (single isomer, unassigned; (+)) [Example 143, (+)-4-{[(6-Bromo-3-methyl-2-phenylquinolin-4-yl)carbonyl]amino}-3-(2-fluoro-6-methoxyphenyl)-3-methylbutanoic Acid], for which the concentration for half-maximal inhibition (IC50) is 6.8 nM. The figure for `Cc1c(-c2ccccc2)nc2ccc(Br)cc2c1C(=O)NC(C)C(CC(=O)O)c1ccccc1Cl` (single isomer, unassigned; (+)) [Example 147, (+)-4-{[(6-Bromo-3-methyl-2-phenylquinolin-4-yl)carbonyl]amino}-3-(2-chlorophenyl)pentanoic Acid] is more than 1000 nM; for `Cc1c(-c2ccccc2)nc2ccc(Br)cc2c1C(=O)NC(C)C(CC(=O)O)c1ccccc1Cl` (single isomer, unassigned; (+)) [Example 150, (+)-4-{[(6-Bromo-3-methyl-2-phenylquinolin-4-yl)carbonyl]amino}-3-(2-chlorophenyl)pentanoic Acid] it is 960 nM; for `Cc1c(-c2ccccc2)nc2ccc(Br)cc2c1C(=O)NCC(C)(CCC(=O)O)c1ccccc1Cl` (single isomer, unassigned; (+)) [Example 156, (+)-5-{[(6-Bromo-3-methyl-2-phenylquinolin-4-yl)carbonyl]amino}-4-(2-chlorophenyl)-4-methylpentanoic Acid] it is 8 nM. As for `Cc1c(-c2ccccc2)nc2ccc(Br)cc2c1C(=O)NCC(CCC(=O)O)c1c(F)cccc1Cl` (single isomer, unassigned; (+)) [Example 159, (+)-5-{[(6-Bromo-3-methyl-2-phenylquinolin-4-yl)carbonyl]amino}-4-(2-chloro-6-fluorophenyl)pentanoic Acid], the IC50 was determined as 24 nM. The figure for `Cc1ccccc1C(CCC(=O)O)CNC(=O)c1c(C)c(-c2ccccc2)nc2ccc(Br)cc12` (single isomer, unassigned; (+)) [Example 162, (+)-5-{[(6-Bromo-3-methyl-2-phenylquinolin-4-yl)carbonyl]amino}-4-(2-methylphenyl)pentanoic Acid] is 33 nM; for `Cc1c(-c2ccccc2)nc2ccc(Br)cc2c1C(=O)NCC(CCC(=O)O)c1cc(F)ccc1Cl` (single isomer, unassigned; (+)) [Example 165, (+)-5-{[(6-Bromo-3-methyl-2-phenylquinolin-4-yl)carbonyl]amino}-4-(2-chloro-5-fluorophenyl)pentanoic Acid] it is 6.6 nM; for `COc1ccccc1C(CCC(=O)O)CNC(=O)c1c(C)c(-c2ccccc2)nc2ccc(Br)cc12` (single isomer, unassigned; (+)) [Example 168, (+)-5-{[(6-Bromo-3-methyl-2-phenylquinolin-4-yl)carbonyl]amino}-4-(2-methoxyphenyl)pentanoic Acid] it is 3.6 nM. With `Cc1c(-c2ccccc2)nc2ccc(Br)cc2c1C(=O)NCC(C)(CCC(=O)O)c1cc(F)ccc1Cl` (single isomer, unassigned; (+)) [Example 171, (+)-5-{[(6-Bromo-3-methyl-2-phenylquinolin-4-yl)carbonyl]amino}-4-(2-chloro-5-fluorophenyl)-4-methylpentanoic Acid], the concentration for half-maximal inhibition (IC50) was 11 nM. For `Cc1c(-c2ccccc2)nc2ccc(Br)cc2c1C(=O)NCC(CCC(=O)O)c1ccccc1F` (single isomer, unassigned; (+)) [Example 177, (+)-5-{[(6-Bromo-3-methyl-2-phenylquinolin-4-yl)carbonyl]amino}-4-(2-fluorophenyl)pentanoic Acid], the half-maximal inhibitory concentration (IC50) came out at 19 nM. For the molecule `Cc1c(-c2ccccc2)nc2ccc(Br)cc2c1C(=O)NCC(CCC(=O)O)c1ccccc1OC(F)F` (single isomer, unassigned; (+)) [Example 180, (+)-5-{[(6-Bromo-3-methyl-2-phenylquinolin-4-yl)carbonyl]amino}-4-[2-(difluoromethoxy)phenyl]pentanoic Acid], the IC50 amounted to 8.2 nM. The result for `Cc1c(-c2ccccc2)nc2ccc(Br)cc2c1C(=O)NCC(CCC(=O)O)c1c(F)cccc1F` (single isomer, unassigned; (+)) [Example 183, (+)-5-{[(6-Bromo-3-methyl-2-phenylquinolin-4-yl)carbonyl]amino}-4-(2,6-difluorophenyl)pentanoic Acid] reads 23 nM; that for `Cc1c(-c2ccccc2)nc2ccc(Br)cc2c1C(=O)NCC(CCC(=O)O)c1cccc(F)c1Cl` (single isomer, unassigned; (+)) [Example 186, (+)-5-{[(6-Bromo-3-methyl-2-phenylquinolin-4-yl)carbonyl]amino}-4-(2-chloro-3-fluorophenyl)pentanoic Acid], 17 nM. Consider `Cc1c(-c2ccccc2)nc2ccc(Br)cc2c1C(=O)NCC(c1ccccc1Cl)N(C)CC(=O)O` (single isomer, unassigned; (+)) [Example 189, (+)-N-[2-{[(6-Bromo-3-methyl-2-phenylquinolin-4-yl)carbonyl]amino}-1-(2-chlorophenyl)ethyl]-N-methylglycine], for which the IC50 worked out at 62 nM.

For the molecule `Cc1c(-c2ccccc2)nc2ccc(Br)cc2c1C(=O)NCC(OCC(=O)O)c1ccccc1Cl` (single isomer, unassigned; (+)) [Example 192, (+)-[2-{[(6-Bromo-3-methyl-2-phenylquinolin-4-yl)carbonyl]amino}-1-(2-chlorophenyl)ethoxy]acetic Acid], the 50% inhibitory concentration (IC50) turned out to be 42 nM. With `Cc1c(-c2ccccc2)nc2ccc(Br)cc2c1C(=O)NCC(SCC(=O)O)c1ccccc1Cl` (single isomer, unassigned; (+)) [Example 195, (+)-{[2-{[(6-Bromo-3-methyl-2-phenylquinolin-4-yl)carbonyl]amino}-1-(2-chlorophenyl)ethyl]sulfanyl}acetic Acid], the IC50 stood at 8 nM. In the case of `Cc1c(-c2ccccc2)nc2ccc(Br)cc2c1C(=O)NCC(CCC(=O)O)c1c(Cl)ccc(F)c1F` (single isomer, unassigned; (+)) [Example 202, (+)-5-{[(6-Bromo-3-methyl-2-phenylquinolin-4-yl)carbonyl]amino}-4-(6-chloro-2,3-difluorophenyl)pentanoic Acid], the IC50 came out at 6.2 nM. The result for `Cc1c(-c2ccccc2)nc2ccc(Br)cc2c1C(=O)NCC(CCC(=O)O)c1ccccc1C(F)(F)F` (single isomer, unassigned; (+)) [Example 205, (+)-5-{[(6-Bromo-3-methyl-2-phenylquinolin-4-yl)carbonyl]amino}-4-[2-(trifluoromethyl)phenyl]pentanoic Acid] reads 22 nM; that for `Cc1ccc(F)cc1C(CCC(=O)O)CNC(=O)c1c(C)c(-c2ccccc2)nc2ccc(Br)cc12` (single isomer, unassigned; (+)) [Example 208, (+)-5-{[(6-Bromo-3-methyl-2-phenylquinolin-4-yl)carbonyl]amino}-4-(5-fluoro-2-methylphenyl)pentanoic Acid], 11 nM; that for `Cc1c(-c2ccccc2)nc2ccc(Br)cc2c1C(=O)NCC(CCC(=O)O)c1ccccc1OC(F)(F)F` (single isomer, unassigned; (+)) [Example 210, (+)-5-{[(6-Bromo-3-methyl-2-phenylquinolin-4-yl)carbonyl]amino}-4-[2-(trifluoromethoxy)phenyl]pentanoic Acid], 6.1 nM.

For `O=C(O)CCC(CNC(=O)c1c(Cl)c(-c2ccccc2)nc2ccc(Br)cc12)c1ccccc1Cl` (single isomer, unassigned; (+)) [Example 214, (+)-5-{[(6-Bromo-3-chloro-2-phenylquinolin-4-yl)carbonyl]amino}-4-(2-chlorophenyl)pentanoic Acid], the 50% inhibitory concentration (IC50) came out at 4.4 nM.

These data come from US11136296B2, “Substituted N-arylethyl-2-arylquinoline-4-carboxamides and use thereof” (Bayer Aktiengesellschaft, priority 2017, dated 2021).
